In the kinase profiling compilation of Christmann-Franck et al. (2016):

Tests used:
Assay in all cases: radiometric filter-binding kinase assay, Kinase HotSpot
Conditions in all cases: compound 0.5 µM; ATP 10 µM
CHUK (human) = CHUK (human) (UniProt O15111)
CDC42BPA (human) = CDC42BPA (human) (UniProt Q5VT25)
[1] = molecular target: JAK1 JH1 catalytic (human) (UniProt P23458)
CSNK1G2 (human) = CSNK1G2 (human) (UniProt P78368)
CDK6 CCND3 (human) = CDK6 CCND3 (human) (UniProt P30281+Q00534)
PRKCI (human) = PRKCI (human) (UniProt P41743)
STK3 (human) = STK3 (human) (UniProt Q13188)
RET (human) = RET (human) (UniProt P07949)
FGR (human) = FGR (human) (UniProt P09769)
Sequence of FGR (human) (P09769 whole entry, looked up): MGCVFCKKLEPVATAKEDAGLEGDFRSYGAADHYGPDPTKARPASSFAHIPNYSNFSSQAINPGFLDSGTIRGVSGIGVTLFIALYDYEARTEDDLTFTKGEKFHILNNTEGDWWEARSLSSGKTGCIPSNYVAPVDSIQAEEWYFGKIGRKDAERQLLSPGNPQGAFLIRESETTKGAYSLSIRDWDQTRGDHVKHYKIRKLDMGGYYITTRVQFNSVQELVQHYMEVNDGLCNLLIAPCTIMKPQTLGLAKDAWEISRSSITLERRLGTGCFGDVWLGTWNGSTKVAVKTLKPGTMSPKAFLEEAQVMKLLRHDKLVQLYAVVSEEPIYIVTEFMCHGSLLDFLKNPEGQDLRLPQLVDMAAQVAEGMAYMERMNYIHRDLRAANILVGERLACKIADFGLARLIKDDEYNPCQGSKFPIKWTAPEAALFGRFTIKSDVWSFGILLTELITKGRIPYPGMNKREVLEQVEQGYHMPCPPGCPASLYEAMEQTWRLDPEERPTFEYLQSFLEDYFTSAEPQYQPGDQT

EGFR (human) = EGFR (human) (UniProt P00533)
HIPK1 (human) = HIPK1 (human) (UniProt Q86Z02)
Sequence of HIPK1 (human) (Q86Z02 whole entry, looked up): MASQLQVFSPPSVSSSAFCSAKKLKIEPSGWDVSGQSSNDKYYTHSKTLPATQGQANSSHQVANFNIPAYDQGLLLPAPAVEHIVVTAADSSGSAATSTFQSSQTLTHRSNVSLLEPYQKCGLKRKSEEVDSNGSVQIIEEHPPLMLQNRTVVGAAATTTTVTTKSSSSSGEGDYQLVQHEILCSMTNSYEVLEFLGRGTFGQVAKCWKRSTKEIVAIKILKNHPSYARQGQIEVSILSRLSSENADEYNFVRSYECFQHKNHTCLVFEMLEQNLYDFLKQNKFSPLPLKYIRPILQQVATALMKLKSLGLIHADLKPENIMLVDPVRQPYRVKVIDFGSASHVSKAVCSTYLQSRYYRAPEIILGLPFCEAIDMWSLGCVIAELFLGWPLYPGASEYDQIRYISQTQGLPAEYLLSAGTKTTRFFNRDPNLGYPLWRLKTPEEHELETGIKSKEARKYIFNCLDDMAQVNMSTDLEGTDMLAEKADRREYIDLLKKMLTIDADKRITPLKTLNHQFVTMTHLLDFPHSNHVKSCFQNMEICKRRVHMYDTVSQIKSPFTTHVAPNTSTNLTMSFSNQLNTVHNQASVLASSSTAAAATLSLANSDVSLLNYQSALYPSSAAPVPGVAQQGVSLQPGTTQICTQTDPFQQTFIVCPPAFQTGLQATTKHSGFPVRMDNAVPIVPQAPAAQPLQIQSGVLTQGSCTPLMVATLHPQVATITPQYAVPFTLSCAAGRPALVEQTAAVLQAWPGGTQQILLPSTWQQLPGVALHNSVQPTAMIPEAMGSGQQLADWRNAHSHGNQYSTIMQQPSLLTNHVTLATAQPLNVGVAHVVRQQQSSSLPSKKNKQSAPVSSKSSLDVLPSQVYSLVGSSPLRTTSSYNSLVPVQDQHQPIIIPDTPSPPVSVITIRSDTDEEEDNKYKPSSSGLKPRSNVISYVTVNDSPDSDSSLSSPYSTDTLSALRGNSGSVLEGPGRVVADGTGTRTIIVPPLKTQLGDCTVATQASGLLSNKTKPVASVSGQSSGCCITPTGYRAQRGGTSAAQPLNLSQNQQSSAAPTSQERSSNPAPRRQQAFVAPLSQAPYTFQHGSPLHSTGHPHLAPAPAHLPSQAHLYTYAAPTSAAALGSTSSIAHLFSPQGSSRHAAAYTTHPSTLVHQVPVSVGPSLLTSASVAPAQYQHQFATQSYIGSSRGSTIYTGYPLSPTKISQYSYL

DYRK1B (human) = DYRK1B (human) (UniProt Q9Y463)
Sequence of DYRK1B (human) (Q9Y463 whole entry, looked up): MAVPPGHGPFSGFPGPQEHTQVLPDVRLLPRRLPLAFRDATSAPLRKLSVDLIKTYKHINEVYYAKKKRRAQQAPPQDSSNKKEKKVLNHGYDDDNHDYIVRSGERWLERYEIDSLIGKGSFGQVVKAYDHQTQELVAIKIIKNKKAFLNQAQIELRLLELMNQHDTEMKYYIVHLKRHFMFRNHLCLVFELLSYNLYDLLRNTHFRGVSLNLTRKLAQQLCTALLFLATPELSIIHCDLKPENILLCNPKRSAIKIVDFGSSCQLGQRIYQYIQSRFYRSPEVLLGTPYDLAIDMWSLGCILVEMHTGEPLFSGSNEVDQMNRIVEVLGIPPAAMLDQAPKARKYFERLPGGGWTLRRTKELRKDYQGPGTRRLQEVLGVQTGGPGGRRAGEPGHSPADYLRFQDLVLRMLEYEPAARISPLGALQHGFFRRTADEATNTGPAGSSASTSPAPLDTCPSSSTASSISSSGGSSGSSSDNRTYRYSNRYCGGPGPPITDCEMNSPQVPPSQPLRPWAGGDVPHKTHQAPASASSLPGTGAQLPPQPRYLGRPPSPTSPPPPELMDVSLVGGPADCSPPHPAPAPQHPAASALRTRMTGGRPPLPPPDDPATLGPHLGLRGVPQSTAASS

PNCK (human) = PNCK (human) (UniProt Q6P2M8)
MST4 (human) = MST4 (human) (UniProt Q9P289)
PDGFRA (human) = PDGFRA (human) (UniProt P16234)
PRKX (human) = PRKX (human) (UniProt P51817)
WNK2 (human) = WNK2 (human) (UniProt Q9Y3S1)
ABL1 (human) = ABL1 (human) (UniProt P00519)
PTK2B (human) = PTK2B (human) (UniProt Q14289)
GRK6 (human) = GRK6 (human) (UniProt P43250)
CDK9 CCNK (human) = CDK9 CCNK (human) (UniProt O75909+P50750)
PKN1 (human) = PKN1 (human) (UniProt Q16512)
DYRK2 (human) = DYRK2 (human) (UniProt Q92630)
EPHA1 (human) = EPHA1 (human) (UniProt P21709)
MARK1 (human) = MARK1 (human) (UniProt Q9P0L2)
ACVRL1 (human) = ACVRL1 (human) (UniProt P37023)
SRPK3 (human) = SRPK3 (human) (UniProt Q9UPE1)
Sequence of SRPK3 (human) (Q9UPE1 whole entry, looked up): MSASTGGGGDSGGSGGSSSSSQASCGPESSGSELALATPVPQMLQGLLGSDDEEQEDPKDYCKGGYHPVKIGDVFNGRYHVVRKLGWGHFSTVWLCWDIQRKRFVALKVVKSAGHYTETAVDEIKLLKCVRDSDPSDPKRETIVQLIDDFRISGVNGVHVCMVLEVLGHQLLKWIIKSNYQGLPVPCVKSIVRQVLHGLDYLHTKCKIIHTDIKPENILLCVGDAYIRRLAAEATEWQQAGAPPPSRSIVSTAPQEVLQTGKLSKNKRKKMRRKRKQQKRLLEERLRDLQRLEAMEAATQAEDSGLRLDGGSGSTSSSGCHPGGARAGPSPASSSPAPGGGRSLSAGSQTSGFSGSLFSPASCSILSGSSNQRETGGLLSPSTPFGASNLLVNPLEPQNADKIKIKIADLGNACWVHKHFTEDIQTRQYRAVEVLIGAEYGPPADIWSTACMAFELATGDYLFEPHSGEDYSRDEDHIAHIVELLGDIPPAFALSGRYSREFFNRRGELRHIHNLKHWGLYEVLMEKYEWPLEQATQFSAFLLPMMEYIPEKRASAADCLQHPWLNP

SRMS (human) = SRMS (human) (UniProt Q9H3Y6)
SLK (human) = SLK (human) (UniProt Q9H2G2)
SYK (human) = SYK (human) (UniProt P43405)
MAP4K2 (human) = MAP4K2 (human) (UniProt Q12851)
CSK (human) = CSK (human) (UniProt P41240)
DCLK2 (human) = DCLK2 (human) (UniProt Q8N568)
AKT1 (human) = AKT1 (human) (UniProt P31749)
Sequence of AKT1 (human) (P31749 whole entry, looked up): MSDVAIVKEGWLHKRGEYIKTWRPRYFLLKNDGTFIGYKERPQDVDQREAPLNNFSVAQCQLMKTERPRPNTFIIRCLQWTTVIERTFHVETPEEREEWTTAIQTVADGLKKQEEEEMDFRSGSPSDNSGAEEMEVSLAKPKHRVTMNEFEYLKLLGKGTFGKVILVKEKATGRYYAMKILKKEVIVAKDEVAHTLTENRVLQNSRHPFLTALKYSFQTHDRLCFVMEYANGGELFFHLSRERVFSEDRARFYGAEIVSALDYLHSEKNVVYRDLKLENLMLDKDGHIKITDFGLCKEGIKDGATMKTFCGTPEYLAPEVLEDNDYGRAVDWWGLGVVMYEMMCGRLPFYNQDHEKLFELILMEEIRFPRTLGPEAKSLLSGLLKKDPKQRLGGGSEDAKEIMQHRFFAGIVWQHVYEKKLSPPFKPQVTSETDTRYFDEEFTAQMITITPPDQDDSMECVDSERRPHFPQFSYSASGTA

PRKCZ (human) = PRKCZ (human) (UniProt Q05513)
PDPK1 (human) = PDPK1 (human) (UniProt O15530)
LTK (human) = LTK (human) (UniProt P29376)
Sequence of LTK (human) (P29376 whole entry, looked up): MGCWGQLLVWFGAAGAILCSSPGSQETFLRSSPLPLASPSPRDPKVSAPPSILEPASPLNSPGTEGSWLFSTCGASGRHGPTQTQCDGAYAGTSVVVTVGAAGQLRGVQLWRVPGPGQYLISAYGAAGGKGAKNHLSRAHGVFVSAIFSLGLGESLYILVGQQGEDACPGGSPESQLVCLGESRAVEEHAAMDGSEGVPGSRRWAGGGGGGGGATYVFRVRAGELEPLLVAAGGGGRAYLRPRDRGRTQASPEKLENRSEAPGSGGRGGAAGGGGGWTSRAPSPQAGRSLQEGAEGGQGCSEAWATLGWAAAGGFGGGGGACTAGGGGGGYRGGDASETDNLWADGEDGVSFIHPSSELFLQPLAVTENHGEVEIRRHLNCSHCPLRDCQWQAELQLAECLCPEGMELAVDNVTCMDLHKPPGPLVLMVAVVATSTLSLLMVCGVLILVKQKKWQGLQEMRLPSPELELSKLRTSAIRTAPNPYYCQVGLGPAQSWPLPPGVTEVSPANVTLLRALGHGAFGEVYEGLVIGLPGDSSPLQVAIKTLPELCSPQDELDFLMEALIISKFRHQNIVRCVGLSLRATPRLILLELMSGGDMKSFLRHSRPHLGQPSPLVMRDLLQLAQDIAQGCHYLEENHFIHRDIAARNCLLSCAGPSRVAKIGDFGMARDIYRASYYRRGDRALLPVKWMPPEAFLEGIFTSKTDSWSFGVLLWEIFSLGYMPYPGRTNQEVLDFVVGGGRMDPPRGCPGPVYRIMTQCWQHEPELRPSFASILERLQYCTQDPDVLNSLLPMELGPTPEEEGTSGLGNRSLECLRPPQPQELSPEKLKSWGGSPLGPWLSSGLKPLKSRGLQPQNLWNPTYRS

IRAK1 (human) = IRAK1 (human) (UniProt P51617)
Sequence of IRAK1 (human) (P51617 whole entry, looked up): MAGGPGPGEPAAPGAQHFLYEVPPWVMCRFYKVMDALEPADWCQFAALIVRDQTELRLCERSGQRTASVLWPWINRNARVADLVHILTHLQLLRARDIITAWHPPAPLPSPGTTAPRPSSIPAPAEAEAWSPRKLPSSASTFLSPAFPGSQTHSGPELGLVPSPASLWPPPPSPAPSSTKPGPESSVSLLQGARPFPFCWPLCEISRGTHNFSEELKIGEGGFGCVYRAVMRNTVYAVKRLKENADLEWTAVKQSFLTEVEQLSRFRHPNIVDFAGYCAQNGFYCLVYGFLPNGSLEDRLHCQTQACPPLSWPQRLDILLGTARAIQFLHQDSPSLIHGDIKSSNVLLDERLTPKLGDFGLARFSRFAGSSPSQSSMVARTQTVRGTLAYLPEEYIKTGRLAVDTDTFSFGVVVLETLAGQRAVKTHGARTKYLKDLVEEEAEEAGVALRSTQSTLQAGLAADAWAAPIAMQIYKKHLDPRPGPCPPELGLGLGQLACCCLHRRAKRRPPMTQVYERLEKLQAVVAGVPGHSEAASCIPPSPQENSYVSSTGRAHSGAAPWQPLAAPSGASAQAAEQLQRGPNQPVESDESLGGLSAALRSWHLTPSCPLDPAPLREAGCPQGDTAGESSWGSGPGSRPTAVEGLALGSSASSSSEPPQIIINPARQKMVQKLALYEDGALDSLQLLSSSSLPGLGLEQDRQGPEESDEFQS

JAK2 JH1 JH2 (human) = JAK2 JH1 JH2 (human) (UniProt O60674)
AURKC (human) = AURKC (human) (UniProt Q9UQB9)
CSNK2A1 (human) = CSNK2A1 (human) (UniProt P68400)

## CCN(CC)C(=O)c1ccc(Nc2nc(OCC3CCCCC3)c3nc[nH]c3n2)cc1
CHUK (human)
  residual activity: 103%
CDC42BPA (human)
  residual activity: 90.7%
[1]
  residual activity: 51.8%
CSNK1G2 (human)
  residual activity: 59.8%
CDK6 CCND3 (human)
  residual activity: 47.2%
PRKCI (human)
  residual activity: 97.2%
STK3 (human)
  residual activity: 62.1%
RET (human)
  residual activity: 7.65%
FGR (human)
  residual activity: 54.2%
EGFR (human)
  residual activity: 88.5%
HIPK1 (human)
  residual activity: 104%
DYRK1B (human)
  residual activity: 90.2%
PNCK (human)
  residual activity: 117%
MST4 (human)
  residual activity: 84.9%
PDGFRA (human)
  residual activity: 66.6%
PRKX (human)
  residual activity: 93.4%
WNK2 (human)
  residual activity: 88.6%
ABL1 (human)
  residual activity: 67.1%
PTK2B (human)
  residual activity: 48.7%
GRK6 (human)
  residual activity: 99.5%
CDK9 CCNK (human)
  residual activity: 72.6%
PKN1 (human)
  residual activity: 78.9%
DYRK2 (human)
  residual activity: 98.2%
EPHA1 (human)
  residual activity: 90.2%
MARK1 (human)
  residual activity: 82.7%
ACVRL1 (human)
  residual activity: 106%
SRPK3 (human)
  residual activity: 68.1%
SRMS (human)
  residual activity: 84.7%
SLK (human)
  residual activity: 71.2%
SYK (human)
  residual activity: 61.1%
MAP4K2 (human)
  residual activity: 59.7%
CSK (human)
  residual activity: 83.1%
DCLK2 (human)
  residual activity: 97.3%
AKT1 (human)
  residual activity: 98.8%
PRKCZ (human)
  residual activity: 95.8%
PDPK1 (human)
  residual activity: 69.1%
LTK (human)
  residual activity: 66.1%
IRAK1 (human)
  residual activity: 93.8%
JAK2 JH1 JH2 (human)
  residual activity: 4.21%
AURKC (human)
  residual activity: 20.7%
CSNK2A1 (human)
  residual activity: 87.4%

## COc1ccc2c(c[n+](C)c3c4cc5c(cc4ccc23)OCO5)c1OC
CHUK (human)
  residual activity: 97.5%
CDC42BPA (human)
  residual activity: 84.8%
[1]
  residual activity: 88.5%
CSNK1G2 (human)
  residual activity: 96.8%
CDK6 CCND3 (human)
  residual activity: 94.6%
PRKCI (human)
  residual activity: 98.3%
STK3 (human)
  residual activity: 102%
RET (human)
  residual activity: 97%
FGR (human)
  residual activity: 91.3%
EGFR (human)
  residual activity: 99.6%
HIPK1 (human)
  residual activity: 100%
DYRK1B (human)
  residual activity: 102%
PNCK (human)
  residual activity: 103%
MST4 (human)
  residual activity: 89.4%
PDGFRA (human)
  residual activity: 101%
PRKX (human)
  residual activity: 95.1%
WNK2 (human)
  residual activity: 98.5%
ABL1 (human)
  residual activity: 92.7%
PTK2B (human)
  residual activity: 92.3%
GRK6 (human)
  residual activity: 104%
CDK9 CCNK (human)
  residual activity: 95.6%
PKN1 (human)
  residual activity: 101%
DYRK2 (human)
  residual activity: 94.5%
EPHA1 (human)
  residual activity: 98.3%
MARK1 (human)
  residual activity: 91.4%
ACVRL1 (human)
  residual activity: 99.2%
SRPK3 (human)
  residual activity: 96.1%
SRMS (human)
  residual activity: 86%
SLK (human)
  residual activity: 87.4%
SYK (human)
  residual activity: 98.8%
MAP4K2 (human)
  residual activity: 96.1%
CSK (human)
  residual activity: 106%
DCLK2 (human)
  residual activity: 96%
AKT1 (human)
  residual activity: 97.6%
PRKCZ (human)
  residual activity: 97.7%
PDPK1 (human)
  residual activity: 98.2%
LTK (human)
  residual activity: 95.9%
IRAK1 (human)
  residual activity: 103%
JAK2 JH1 JH2 (human)
  residual activity: 102%
AURKC (human)
  residual activity: 93.5%
CSNK2A1 (human)
  residual activity: 83.3%

## Nc1cccc(-c2cc3c(Oc4cccc(O)c4)ncnc3[nH]2)c1
CHUK (human)
  residual activity: 102%
CDC42BPA (human)
  residual activity: 87.7%
[1]
  residual activity: 106%
CSNK1G2 (human)
  residual activity: 84.9%
CDK6 CCND3 (human)
  residual activity: 91.3%
PRKCI (human)
  residual activity: 84.6%
STK3 (human)
  residual activity: 109%
RET (human)
  residual activity: -0.229%
FGR (human)
  residual activity: 5.28%
EGFR (human)
  residual activity: 7.89%
HIPK1 (human)
  residual activity: 82.7%
DYRK1B (human)
  residual activity: 100%
PNCK (human)
  residual activity: 98.2%
MST4 (human)
  residual activity: 83.8%
PDGFRA (human)
  residual activity: 73.6%
PRKX (human)
  residual activity: 114%
WNK2 (human)
  residual activity: 103%
ABL1 (human)
  residual activity: 5.5%
PTK2B (human)
  residual activity: 65.6%
GRK6 (human)
  residual activity: 98%
CDK9 CCNK (human)
  residual activity: 58.4%
PKN1 (human)
  residual activity: 105%
DYRK2 (human)
  residual activity: 76.9%
EPHA1 (human)
  residual activity: 31.2%
MARK1 (human)
  residual activity: 83%
ACVRL1 (human)
  residual activity: 70.3%
SRPK3 (human)
  residual activity: 101%
SRMS (human)
  residual activity: 94.4%
SLK (human)
  residual activity: 64.1%
SYK (human)
  residual activity: 36.1%
MAP4K2 (human)
  residual activity: 55.5%
CSK (human)
  residual activity: 43.6%
DCLK2 (human)
  residual activity: 89%
AKT1 (human)
  residual activity: 92.5%
PRKCZ (human)
  residual activity: 94%
PDPK1 (human)
  residual activity: 86.8%
LTK (human)
  residual activity: 16.8%
IRAK1 (human)
  residual activity: 91.4%
JAK2 JH1 JH2 (human)
  residual activity: 85.4%
AURKC (human)
  residual activity: 77.7%
CSNK2A1 (human)
  residual activity: 96.8%
